# Test results from patent US10118935B2, “Melampomagnolide B dimers” (priority 2014, dated 2018).
# Read-outs that look alike come from different tables or passages of the source.
# Key:
# CCRF-CEM = assay: NCI 60 cell line five dose, Leukemia
# MOLT-4 = assay: NCI 60 cell line five dose, Leukemia
# RPMI-8226 = assay: NCI 60 cell line five dose, Leukemia
# LOX IMVI = assay: NCI 60 cell line five dose, Melanoma
# M14 = assay: NCI 60 cell line five dose, Melanoma
# SK-MEL-28 = assay: NCI 60 cell line five dose, Melanoma
# SF-295 = assay: NCI 60 cell line five dose, CNS Cancer
# SNB-75 = assay: NCI 60 cell line five dose, CNS Cancer
# HCC-2998 = assay: NCI 60 cell line five dose, Colon Cancer
# SW-620 = assay: NCI 60 cell line five dose, Colon Cancer
# 786-0 = assay: NCI 60 cell line five dose, Renal Cancer
# A498 = assay: NCI 60 cell line five dose, Renal Cancer
# RXF 393 = assay: NCI 60 cell line five dose, Renal Cancer
# SN12C = assay: NCI 60 cell line five dose, Renal Cancer
# MDA-MB-231/ATCC = assay: NCI 60 cell line five dose, Breast Cancer
# BT-549 = assay: NCI 60 cell line five dose, Breast Cancer
# OVCAR-5 = assay: NCI 60 cell line five dose, Ovarian Cancer
# NCI/ADR-RES = assay: NCI 60 cell line five dose, Ovarian Cancer; settings: NCI/ADR-
# SK-OV-3 = assay: NCI 60 cell line five dose, Ovarian Cancer
# DU-145 = assay: NCI 60 cell line five dose, Prostate Cancer
# NCI-H23 = assay: NCI 60 cell line five dose, Non-Small Cell Lung Cancer
# NCI-H522 = assay: as above
compound,measurement,setting,value
"C=C1C(=O)O[C@H]2[C@H]1CC/C(COC(=O)NCCCCNC(=O)OC/C1=C/CC[C@@]3(C)O[C@H]3[C@H]3OC(=O)C(=C)[C@@H]3CC1)=C\CC[C@@]1(C)O[C@@H]21 [JVM 3-54, bis(((1aR,7aS,10aS,10bS,E)-1a-Methyl-8-methylene-9-oxo-1a,2,3,6,7,7a,8,9,10a,10b-decahydrooxireno[2′,3′:9,10]cyclodeca[1,2-b]furan-5-yl)methyl)butane-1,4-diyldicarbamate]",GI50,HL-60(TB),0.256 µM
same,TGI,HL-60(TB),1.08 µM
same,Percent Growth,HL-60(TB); Log10 Concentration −4.0,−38%
same,Percent Growth,HL-60(TB); Log10 Concentration −5.0,−41%
same,Percent Growth,HL-60(TB); Log10 Concentration −6.0,1%
same,Percent Growth,HL-60(TB); Log10 Concentration −7.0,84%
same,Percent Growth,HL-60(TB); Log10 Concentration −8.0,962%
same,CC50,HL-60(TB); read-out: LC50,> 100 µM
same,GI50,CCRF-CEM,0.272 µM
same,TGI,CCRF-CEM,0.845 µM
same,Percent Growth,CCRF-CEM; Log10 Concentration −4.0,−50%
same,Percent Growth,CCRF-CEM; Log10 Concentration −5.0,−46%
same,Percent Growth,CCRF-CEM; Log10 Concentration −6.0,−7%
same,Percent Growth,CCRF-CEM; Log10 Concentration −7.0,94%
same,Percent Growth,CCRF-CEM; Log10 Concentration −8.0,98%
same,CC50,CCRF-CEM; read-out: LC50,> 100 µM
same,GI50,MOLT-4,1.47 µM
same,TGI,MOLT-4,4.15 µM
same,Percent Growth,MOLT-4; Log10 Concentration −4.0,−41%
same,Percent Growth,MOLT-4; Log10 Concentration −5.0,−42%
same,Percent Growth,MOLT-4; Log10 Concentration −6.0,68%
same,Percent Growth,MOLT-4; Log10 Concentration −7.0,98%
same,Percent Growth,MOLT-4; Log10 Concentration −8.0,98%
same,CC50,MOLT-4; read-out: LC50,> 100 µM
same,GI50,RPMI-8226,0.547 µM
same,TGI,RPMI-8226,3.08 µM
same,Percent Growth,RPMI-8226; Log10 Concentration −4.0,−42%
same,Percent Growth,RPMI-8226; Log10 Concentration −5.0,−33%
same,Percent Growth,RPMI-8226; Log10 Concentration −6.0,31%
same,Percent Growth,RPMI-8226; Log10 Concentration −7.0,102%
same,Percent Growth,RPMI-8226; Log10 Concentration −8.0,101%
same,CC50,RPMI-8226; read-out: LC50,> 100 µM
same,GI50,LOX IMVI,0.519 µM
same,TGI,LOX IMVI,1.92 µM
same,Percent Growth,LOX IMVI; Log10 Concentration −4.0,−74%
same,Percent Growth,LOX IMVI; Log10 Concentration −5.0,−84%
same,Percent Growth,LOX IMVI; Log10 Concentration −6.0,33%
same,Percent Growth,LOX IMVI; Log10 Concentration −7.0,93%
same,Percent Growth,LOX IMVI; Log10 Concentration −8.0,93%
same,CC50,LOX IMVI; read-out: LC50,5.15 µM
same,GI50,M14,1.97 µM
same,TGI,M14,4.82 µM
same,Percent Growth,M14; Log10 Concentration −4.0,−84%
same,Percent Growth,M14; Log10 Concentration −5.0,−41%
same,Percent Growth,M14; Log10 Concentration −6.0,88%
same,Percent Growth,M14; Log10 Concentration −7.0,88%
same,Percent Growth,M14; Log10 Concentration −8.0,94%
same,CC50,M14; read-out: LC50,16.3 µM
same,GI50,SK-MEL-28,0.529 µM
same,TGI,SK-MEL-28,2.3 µM
same,Percent Growth,SK-MEL-28; Log10 Concentration −4.0,−73%
same,Percent Growth,SK-MEL-28; Log10 Concentration −5.0,−58%
same,Percent Growth,SK-MEL-28; Log10 Concentration −6.0,33%
same,Percent Growth,SK-MEL-28; Log10 Concentration −7.0,94%
same,Percent Growth,SK-MEL-28; Log10 Concentration −8.0,100%
same,CC50,SK-MEL-28; read-out: LC50,8.08 µM
same,GI50,SF-295,13 µM
same,TGI,SF-295,27.4 µM
same,Percent Growth,SF-295; Log10 Concentration −4.0,−87%
same,Percent Growth,SF-295; Log10 Concentration −5.0,68%
same,Percent Growth,SF-295; Log10 Concentration −6.0,98%
same,Percent Growth,SF-295; Log10 Concentration −7.0,89%
same,Percent Growth,SF-295; Log10 Concentration −8.0,92%
same,CC50,SF-295; read-out: LC50,57.7 µM
same,GI50,SNB-75,2.19 µM
same,TGI,SNB-75,16.5 µM
same,Percent Growth,SNB-75; Log10 Concentration −4.0,−65%
same,Percent Growth,SNB-75; Log10 Concentration −5.0,18%
same,Percent Growth,SNB-75; Log10 Concentration −6.0,67%
same,Percent Growth,SNB-75; Log10 Concentration −7.0,64%
same,Percent Growth,SNB-75; Log10 Concentration −8.0,70%
same,CC50,SNB-75; read-out: LC50,66.3 µM
same,GI50,HCC-2998,2.35 µM
same,TGI,HCC-2998,4.78 µM
same,Percent Growth,HCC-2998; Log10 Concentration −4.0,−78%
same,Percent Growth,HCC-2998; Log10 Concentration −5.0,−52%
same,Percent Growth,HCC-2998; Log10 Concentration −6.0,110%
same,Percent Growth,HCC-2998; Log10 Concentration −7.0,99%
same,Percent Growth,HCC-2998; Log10 Concentration −8.0,97%
same,CC50,HCC-2998; read-out: LC50,9.73 µM
same,GI50,SW-620,0.586 µM
same,TGI,SW-620,2.04 µM
same,Percent Growth,SW-620; Log10 Concentration −4.0,−72%
same,Percent Growth,SW-620; Log10 Concentration −5.0,−79%
same,Percent Growth,SW-620; Log10 Concentration −6.0,35%
same,Percent Growth,SW-620; Log10 Concentration −7.0,98%
same,Percent Growth,SW-620; Log10 Concentration −8.0,100%
same,CC50,SW-620; read-out: LC50,5.56 µM
same,GI50,786-0,1.99 µM
same,TGI,786-0,4.25 µM
same,Percent Growth,786-0; Log10 Concentration −4.0,−91%
same,Percent Growth,786-0; Log10 Concentration −5.0,−56%
same,Percent Growth,786-0; Log10 Concentration −6.0,95%
same,Percent Growth,786-0; Log10 Concentration −7.0,91%
same,Percent Growth,786-0; Log10 Concentration −8.0,98%
same,CC50,786-0; read-out: LC50,9.11 µM
same,GI50,A498,6.36 µM
same,TGI,A498,18.9 µM
same,Percent Growth,A498; Log10 Concentration −4.0,−99%
same,Percent Growth,A498; Log10 Concentration −5.0,38%
same,Percent Growth,A498; Log10 Concentration −6.0,99%
same,Percent Growth,A498; Log10 Concentration −7.0,94%
same,Percent Growth,A498; Log10 Concentration −8.0,97%
same,CC50,A498; read-out: LC50,43.9 µM
same,GI50,RXF 393,1.44 µM
same,TGI,RXF 393,3.36 µM
same,Percent Growth,RXF 393; Log10 Concentration −4.0,−100%
same,Percent Growth,RXF 393; Log10 Concentration −5.0,−64%
same,Percent Growth,RXF 393; Log10 Concentration −6.0,71%
same,Percent Growth,RXF 393; Log10 Concentration −7.0,95%
same,Percent Growth,RXF 393; Log10 Concentration −8.0,100%
same,CC50,RXF 393; read-out: LC50,7.84 µM
same,GI50,SN12C,2.75 µM
same,TGI,SN12C,10.1 µM
same,Percent Growth,SN12C; Log10 Concentration −4.0,−84%
same,Percent Growth,SN12C; Log10 Concentration −6.0,89%
same,Percent Growth,SN12C; Log10 Concentration −7.0,101%
same,Percent Growth,SN12C; Log10 Concentration −8.0,100%
same,CC50,SN12C; read-out: LC50,39.5 µM
same,GI50,MDA-MB-231/ATCC,1.53 µM
same,TGI,MDA-MB-231/ATCC,3.24 µM
same,Percent Growth,MDA-MB-231/ATCC; Log10 Concentration −4.0,−85%
same,Percent Growth,MDA-MB-231/ATCC; Log10 Concentration −5.0,−76%
same,Percent Growth,MDA-MB-231/ATCC; Log10 Concentration −6.0,79%
same,Percent Growth,MDA-MB-231/ATCC; Log10 Concentration −7.0,104%
same,Percent Growth,MDA-MB-231/ATCC; Log10 Concentration −8.0,103%
same,GI50,BT-549,1.6 µM
same,TGI,BT-549,3.63 µM
same,Percent Growth,BT-549; Log10 Concentration −4.0,−98%
same,Percent Growth,BT-549; Log10 Concentration −5.0,−62%
same,Percent Growth,BT-549; Log10 Concentration −6.0,79%
same,Percent Growth,BT-549; Log10 Concentration −7.0,91%
same,Percent Growth,BT-549; Log10 Concentration −8.0,100%
same,GI50,OVCAR-5,1.75 µM
same,TGI,OVCAR-5,3.69 µM
same,Percent Growth,OVCAR-5; Log10 Concentration −4.0,−72%
same,Percent Growth,OVCAR-5; Log10 Concentration −5.0,−67%
same,Percent Growth,OVCAR-5; Log10 Concentration −6.0,87%
same,Percent Growth,OVCAR-5; Log10 Concentration −7.0,92%
same,Percent Growth,OVCAR-5; Log10 Concentration −8.0,95%
same,CC50,OVCAR-5; read-out: LC50,7.79 µM
same,GI50,NCI/ADR-RES,37.7 µM
same,Percent Growth,NCI/ADR-RES; Log10 Concentration −4.0,23%
same,Percent Growth,NCI/ADR-RES; Log10 Concentration −5.0,86%
same,Percent Growth,NCI/ADR-RES; Log10 Concentration −6.0,99%
same,Percent Growth,NCI/ADR-RES; Log10 Concentration −7.0,90%
same,Percent Growth,NCI/ADR-RES; Log10 Concentration −8.0,94%
same,CC50,NCI/ADR-RES; read-out: LC50,> 100 µM
same,GI50,SK-OV-3,12.7 µM
same,TGI,SK-OV-3,25.3 µM
same,Percent Growth,SK-OV-3; Log10 Concentration −4.0,−100%
same,Percent Growth,SK-OV-3; Log10 Concentration −5.0,67%
same,Percent Growth,SK-OV-3; Log10 Concentration −6.0,107%
same,Percent Growth,SK-OV-3; Log10 Concentration −7.0,102%
same,Percent Growth,SK-OV-3; Log10 Concentration −8.0,98%
same,CC50,SK-OV-3; read-out: LC50,50.4 µM
same,GI50,DU-145,3.21 µM
same,TGI,DU-145,10.5 µM
same,Percent Growth,DU-145; Log10 Concentration −4.0,−96%
same,Percent Growth,DU-145; Log10 Concentration −5.0,2%
same,Percent Growth,DU-145; Log10 Concentration −6.0,99%
same,Percent Growth,DU-145; Log10 Concentration −7.0,98%
same,Percent Growth,DU-145; Log10 Concentration −8.0,99%
same,CC50,DU-145; read-out: LC50,33.8 µM
same,GI50,NCI-H23,2.18 µM
same,TGI,NCI-H23,5.54 µM
same,Percent Growth,NCI-H23; Log10 Concentration −4.0,−70%
same,Percent Growth,NCI-H23; Log10 Concentration −5.0,32%
same,Percent Growth,NCI-H23; Log10 Concentration −6.0,92%
same,Percent Growth,NCI-H23; Log10 Concentration −7.0,95%
same,Percent Growth,NCI-H23; Log10 Concentration −8.0,95%
same,CC50,NCI-H23; read-out: LC50,30.4 µM
same,GI50,NCI-H522,0.167 µM
same,TGI,NCI-H522,0.375 µM
same,Percent Growth,NCI-H522; Log10 Concentration −4.0,−71%
same,Percent Growth,NCI-H522; Log10 Concentration −5.0,−75%
same,Percent Growth,NCI-H522; Log10 Concentration −6.0,−60%
same,Percent Growth,NCI-H522; Log10 Concentration −7.0,82%
same,Percent Growth,NCI-H522; Log10 Concentration −8.0,95%
same,CC50,NCI-H522; read-out: LC50,0.845 µM
